In PubChem BioAssay (NCI):
Values joined by “and” are separate entries in the source; they are usually repeats but may differ in a detail not shown here. Equal values may be shown once.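 Briefly, cells in 96-well plates were exposed to five compound concentrations for 48 h, and endpoints were estimated by linear interpolation. Here, GI50 denotes the concentration required for 50% inhibition of growth. TGI denotes the concentration required for complete inhibition of growth.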

Assays:
Assay in all cases: NCI-60 cell line screen, 48 h
[1] = tested on: HCT-116 colon
[2] = tested on: UACC-62 melanoma
[3] = tested on: ACHN renal
[4] = tested on: SF-539 CNS
[5] = tested on: NCI-H460 lung
[6] = tested on: MALME-3M melanoma
[7] = tested on: SK-MEL-2 melanoma
[8] = tested on: KM12 colon
[9] = tested on: EKVX NSCLC
[10] = tested on: SNB-75 CNS

SMILES | GI50 [1] | TGI [1] | GI50 [2] | TGI [2] | GI50 [3] | TGI [3] | GI50 [4] | TGI [4] | GI50 [5] | TGI [5] | GI50 [6] | TGI [6] | GI50 [7] | TGI [7] | GI50 [8] | TGI [8] | GI50 [9] | TGI [9] | TGI [10]
CC(=O)c1cccc(N(/C=C/C(=O)C(F)(F)F)CC(=O)c2ccc(Cl)cc2)c1 | > 100 µM | > 100 µM | > 100 µM | > 100 µM | > 100 µM | > 100 µM | > 100 µM | > 100 µM | > 100 µM | > 100 µM | > 100 µM | > 100 µM | > 100 µM | > 100 µM | > 100 µM | > 100 µM | > 100 µM | > 100 µM | –
CN1C2CC(C#N)C1C=CC2=O (stereo not drawn) | 13.4 µM and 43.8 µM | 27.2 µM and > 100 µM | 27.7 µM and 63.2 µM | > 100 µM | 22.8 µM and > 100 µM | 76.9 µM and > 100 µM | 18.6 µM and > 100 µM | 43.2 µM and > 100 µM | 15.8 µM and 73.2 µM | 32.4 µM and > 100 µM | 14.8 µM and 96.6 µM | 31.4 µM and > 100 µM | – | 51.4 µM and > 100 µM | 16.9 µM and 88.2 µM | 33.5 µM and > 100 µM | 14.7 µM and 62.1 µM | 28 µM and > 100 µM | –
Cc1cc2c(C(C)C)c(O)c(O)c(C=Nc3cc(C(F)(F)F)ccc3Cl)c2c(O)c1-c1c(C)cc2c(C(C)C)c(O)c(O)c(C=Nc3cc(C(F)(F)F)ccc3Cl)c2c1O | – | > 100 µM | – | 51.8 µM | – | 79.4 µM | – | > 100 µM | – | > 100 µM | – | 95 µM | – | 80.8 µM | – | 92.4 µM | – | > 100 µM | –
COc1cc2cc(Oc3ccc(NC(=O)c4cccc(C(F)(F)F)c4)cc3)c(C)nc2cc1OC | 3.22 µM | > 100 µM | 5.27 µM | > 100 µM | 3.6 µM | > 100 µM | 8.35 µM | > 100 µM | 4.07 µM | > 100 µM | > 100 µM | > 100 µM | 5.11 µM | > 100 µM | 4.03 µM | > 100 µM | 4.39 µM | > 100 µM | –
C#C[C@]1(O)CC[C@H]2[C@@H]3CC=C4c5nc(Nc6ccccn6)sc5CC[C@]4(C)[C@H]3CC[C@@]21C | 1.12 µM | 2.73 µM | 1.15 µM | 2.68 µM | 1.37 µM | 10.2 µM | 0.185 µM | 0.744 µM | 1.21 µM | 2.83 µM | 0.677 µM | 2.32 µM | 0.603 µM | 3.08 µM | 1.7 µM | 4.5 µM | 1.72 µM | 9.14 µM | –
C/C(=N/N(C=O)C[n+]1ccccc1)C(CN(CC(C)C)CC(C)C)C(=O)Nc1ccc(C)cc1C (stereo not drawn) | – | > 100 µM | – | > 100 µM | – | > 100 µM | – | > 100 µM | – | > 100 µM | – | > 100 µM | – | > 100 µM | – | > 100 µM | – | > 100 µM | –
COc1cc2nncc(Sc3cnnc4ccccc34)c2cc1OC | – | – | – | > 100 µM | – | 51.9 µM | – | 51.7 µM | – | 50.4 µM | – | 32.4 µM | – | 36.2 µM | – | 56.5 µM | – | > 100 µM | –
COc1ccc(-n2nnc3c(sc4ccccc43)c2=O)cc1 | – | – | > 100 µM | > 100 µM | – | – | – | – | – | – | – | – | > 100 µM | > 100 µM | > 100 µM | > 100 µM | – | – | –
COc1ccc(-c2cc(-c3ccc(Cl)cc3)c(C#N)c(=O)n2CCCCC(=O)Nc2ccccc2N)cc1 | 3.25 µM | 20.7 µM | 3.29 µM | 13 µM | 5.25 µM | > 100 µM | 19.4 µM | > 100 µM | 4.26 µM | 56.6 µM | 4.7 µM | 31.1 µM | 9.05 µM | 37.8 µM | 5.17 µM | > 100 µM | 3.25 µM | 91.3 µM | –
COC(=O)C1=C(OC(=O)c2ccc(Cl)cc2)C(C(=O)OC)[C@@]2(O)[C@@H](C(=O)OC)C(c3ccccc3C(F)(F)F)C[C@@H]1[C@@H]2C(=O)OC (stereo partly drawn) | 2.92 µM | 11.4 µM | 1.8 µM | 3.65 µM | 3.19 µM | > 100 µM | 5.13 µM | > 100 µM | 6.53 µM | 77.1 µM | – | – | 15.5 µM | 33.9 µM | 23.9 µM | 64.2 µM | 8.1 µM | > 100 µM | –
CCc1ccccc1NC(=O)C(=O)C(C(=O)c1ccc(OC)cc1)c1ccc(OC)cc1 (stereo not drawn) | – | > 100 µM | – | > 100 µM | – | > 100 µM | – | > 100 µM | – | > 100 µM | – | > 100 µM | – | > 100 µM | – | > 100 µM | – | > 100 µM | –
COc1ccc(OC)c(-c2cc(-c3ccccc3)nn2-c2ccc(S(=O)(=O)NC(C)=O)cc2)c1 | – | – | 10.9 µM | 22.9 µM | – | – | 28.1 µM | 60.4 µM | 13.2 µM | > 100 µM | – | – | 36.2 µM | > 100 µM | 4.66 µM | 39.6 µM | 22.8 µM | 41.8 µM | –
Cc1cc(C)c2c(c1)CN1CN2Cc2cc(C)cc(C)c21 | – | 37.2 µM | – | 35.9 µM | – | 35.9 µM | – | – | – | 29.6 µM | – | – | – | – | – | 37.1 µM | – | 35.1 µM | 24.8 µM
CC(C)(C)OC(=O)NCC(C#N)CNC(=O)OC(C)(C)C | – | > 100 µM | – | > 100 µM | – | > 100 µM | – | > 100 µM | – | > 100 µM | – | > 100 µM | – | – | – | > 100 µM | – | > 100 µM | –
